Data on 3 compounds can be found in patent publication US11589575B2, “Injectable preserving medium for preserving cells from placental blood, from bone marrow and from peripheral blood” (ETABLISSEMENT FRANCAIS DU SANG, priority 2015, dated 2023).

The structures appear in SMILES notation. Entries after “also recorded” stand apart in the source; their conditions may differ.

In this assay the test system is placental blood CD34+ cells amplified ex vivo. Put plainly: Preservation at +4° C. of ex vivo amplified placental blood CD34+ cells (TNC viability and clonogenic CFC/CFU yield). It counts as cell-based, human. The settings on record: for preserving of the functionality (clonogenicity) of amplified cells: cells stored at +4° C. As for the experimental part:
The cells, after ex vivo expansion, are more fragile than the original CD34+ cells, and the maintaining thereof is most critical at +4° C. (Duchez et al, 2013, supra).
Throughout all the studies leading to the formulation of the biological preserving medium, the assays were conducted on placental blood CD34+ cells derived from a bank with storage at −196° C. Each assay was performed on one 1 or more samples.
The placental blood CD34+ cells were isolated with an immunomagnetic system, then frozen and banked at −196° C.
After thawing, the placental blood CD34+ cells (20000/ml) were placed in culture in HP01 medium in the presence of SCF (Stem Cell Factor) 100 ng/ml, Flt3 (FMS-like tyrosine kinase-3) 100 ng/ml, G-CSF (Granulocyte Colony Stimulating Factor) 10 ng/ml, and thrombopoietin (TPO) 20 ng/ml at 37° C., 5% CO2 and 85% humidity. At mid-culture, the addition was made of HP01 culture medium with the cytokines (1/5 dilution) and culture continued up to 9 to 12 days (generally 10 days).
After culture, 2.5 ml of cell suspension were transferred to 2.5 ml gas-impermeable polypropylene tubes and centrifuged at 430 g for 10 minutes at 18° C. The supernatant was fully removed (with about 50 μl of supernatant remaining on the cell residue). Then, 2.45 ml of preserving medium to be assayed (at ambient temperature) were added to the tube and the tube sealed with the stopper; the cells being replaced in suspension with successive upturning movements. The samples were left at ambient temperature for 1 to 3 hours. Finally, the tubes were placed flat at +4° C. for times generally of 48 h to 72 h. Assays were also conducted in gas-permeable PVC pouches for comparative studies and in gas-impermeable EVA pouches.
Analyses were performed on the amplified cells: counting and viability of TNCs (Total Nucleated Cells), clonogenic assays, sometimes with counting and viability of CD34+ cells. After the period at +4° C. for the defined times (48 h and 72 h), the cell samples were assayed: counting and viability of TNCs and clonogenic assays (at times also counting and viability of CD34+ cells).
The quantity of viable total nucleated cells remaining after storage at 4° C. was compared with the quantity of viable total nucleated cells at the end of culture, to obtain a recovery yield of viable cells. Similarly, the yield of CFCs (Colony Forming Cells) was calculated. The values obtained were used to evaluate the advantage of one or more compounds in the formulation and to identify the optimal concentration of these compounds. The values were compared with those obtained with the HP02 preserving medium (Duchez et al, 2013, supra).

As to `Cc1c(C)c2c(c(C)c1O)CC[C@@](C)(CCC[C@H](C)CCC[C@H](C)CCCC(C)C)O2` [vitamin E, Alpha-tocopherol], the “preserving of the functionality (clonogenicity) of amplified cells” value (from here on “preserving of the functionality”) is listed as “the greatest action; also recorded: the most important action”. For the same compound, the “action throughout the assays on preservation of amplified cells (readout not further specified)” value (stored at +4° C.) was “effect close to or identical to the effect of Cernevit®”.

On to `O=C1O[C@H]([C@@H](O)CO)C(O)=C1O` [vitamin C, Ascorbic acid], for which the “preserving of the functionality” value is given as “lesser action”.

As for `CC1=C(/C=C/C(C)=C/C=C/C(C)=C/CO)C(C)(C)CCC1` [vitamin A, Retinol], the “preserving of the functionality” value is given as “lesser action”.
